Key:
[1] = system: human osteoblasts (SaM-1); assay: Mineralization (Ca and P accumulation in extracellular matrices) of human osteoblasts; assay type: cell-based; conditions: SaM-1 cells, 32 days, 2 mM glycerophosphoric acid
Experimental: Employed were cultured human osteoblasts (SaM-1), which had been established from the periosteum of an ulna of a person obtained during a surgical operation of a fractured bone. Those SaM-1 cells were equipped with all the characteristics of osteoblasts (Koshihara, Y. et al.: In Vitro Cell, Dev. Biol., 25, 37-43, 1989). SaM-1 cells are known to promote mineralization in the presence of 2 mM a-glycerophosphoric acid, depending upon the concentration of 1α,25(OH)2D3.
SaM-1 cells of 18 PDL (population doubling level) were seeded to a 12-well plate, and cultured to a confluent state. a-Glycerophosphoric acid, a mineralization promoter, was then added to 2 mM. […]
Ca in each extracellular matrix was quantitated by using a kit (“Calcium C Test Wako”) based on the o-cresolphthalein complexone method (OCPC method).
After completion of the culture, the cells were washed with Hanks' solution. […] Five minutes later, the reaction mixtures were measured by an absorptiometer (570 nm)(FIG. 6).
P in each extracellular matrix was quantitated by the method proposed by Chen et al. (Chen, P. S. et al.: Anal. Chem., 28, 1756-1758, 1956).
0.84% Ammonium molybdate, 2 N sulfuric acid and 10% ascorbic acid were mixed at 3:3:1 (volume ratio) to prepare a reaction reagent. The extracts (100 μL) obtained in the above-described Ca quantitation were each diluted with distilled water (800 μL). […]

[2] = system: stromal cell line ST-2 derived from mouse bone marrow; assay: ALP activity of ST-2 cells cultured with ACNQ (osteogenesis promoting effect); assay type: cell-based
Experimental: Cells of the stromal cell line ST-2 derived from mouse bone marrow (Udagawa, N. et al.: Endocrinology 125, 1805-1813, 1989) were used as osteoblasts. These cells have similar osteoclast differentiation inducing ability for bone marrow cells as osteoblasts.
The cells were seeded in the individual wells of a 96-well plate at 4×10^4 cells/well, and cultured for 1 day in RPMI 1640 medium which contained 10% FBS, penicillin G and streptomycin.
The medium was replaced by the same medium which contained ACNQ, and cultured further for 3 days. After the culture, the ALP activity of cells was assayed.
(§1) The cells were washed with PBS, and then immobilized with ethanol for 1 minute. An enzyme reaction solution (a buffer containing p-nitrophenyl phosphate, 0.1 M glycine, 1 mM MgCl2 and 0.1 mM ZnCl2 as substrates, pH 10.5) of 37° C. was added to have the cells reacted at 37° C. for 30 minutes. An equiamount of 0.05 N NaOH was added to quench the reaction. ALP activity was expressed in terms of units, with 1 unit representing the amount of p-nitrophenol formed in a minute per mg-protein as measured in terms of absorbance at 415 nm). Protein contents were determined using a protein assay kit (product of Bio-Rad Lab.). Further, the cytotoxicity of ACNQ was measured by MTT assay (FIG. 5).

[3] = system: stromal cell line ST-2 derived from mouse bone marrow; assay: Cytotoxicity of ACNQ by MTT assay in ST-2 cells; assay type: cell-based; conditions: at the peak concentration of ALP activity, 1 μg/mL (FIG. 5)
Experimental: as §1

[4] = system: human bone marrow cells (monocytes); assay: Formation of TRAP-positive polykaryocytes in culture of human bone marrow monocytes; assay type: cell-based
Experimental: (1) Human bone marrow cells obtained during an artificial caput replacement operation were subjected to density-gradient centrifugation to collect monocytes. Those monocytes were seeded into α-MEM medium, which contained 20% equine serum and 10^−8 M 1α,25(OH)2D3, to give 8×10^5 cells/well (079 cm^2), and were then cultured for […]. The cultures were each replaced twice a week by a half of its volume each time. Addition of ACNQ was conducted at the beginning.
On the 16th day of culture, the cultures were treated with pronase and EDTA to eliminate stromal cells. On the following day, the cells were washed with PBS(−) and then immobilized with formalin. The formalin-immobilized cells were subjected to TRAP staining, and the TRAP-positive polykaryocyte counts of the respective wells were determined. Vitamin K1 was used as a control.

[5] = system: human osteoblasts (SaM-1); assay: Cytotoxicity by free LDH in culture supernatant of SaM-1 cells; assay type: cell-based; conditions: 32nd day of culture, 10^−5 M to 10^−7 M (FIG. 8)
Experimental: Using “LDH-Cytotoxic Test Wako” (cytotoxicity assay kit), free LDH in each culture supernatant was measured to investigate the cytotoxicity of ACNQ. Culture supernatants on the 32nd day of culture were sampled, and subsequent to a staining reaction, their LDH concentrations were measured by using a microplate reader (540 nm).

[6] = system: osteoclast-like polykaryocytes from ddY mouse co-culture; assay: Formation of bone resorption lacunae on a piece of dentinum by osteoclasts; assay type: cell-based; conditions: 24 hours on dentinum, even at the highest concentration, 7.5 μg/mL (FIG. 11)
Experimental: Investigated was the effect of ACNQ on the formation of bone resorption lacunae on a piece of dentinum by osteoclasts.
As in the test (2) of Test 4, a culture (20 mL) containing primary osteoblast-like interstitial cells, which had been derived from the calvariae of ddY mice newborn, and bone marrow cells, which had been isolated from the femurs and shinbones of the same strain mice (males of 6 to 9 weeks of age), at a ratio of 1×10^6 cells to 1×10^7 cells in a 100 mm dish was co-cultured for 6 to 8 days on a collagen gel in αMEM medium in which 10% FEB and 10^−8 M 1α,25(OH)2D3 had been added. Medium replacement was conducted on every third days. After the culture, a 0.2% collagenase solution was added. The thus-obtained mixture was gently shaken at 37° C. for 20 minutes to digest the collagen gel, and differentiation-induced osteoclast-like polykaryocytes were collected. The count of osteoclasts obtained by this method was at most 4×10^4 cells/100 mm-dish.
(§2) Those osteoclast-like polykaryocytes were prepared to 4×10^3 cells/mL with αMEM medium containing 10% FBS, seeded at 100 μL/well into wells (96 wells) in which pieces of dentinum were placed, respectively, and cultured at 37° C. for 2 hours. […] After the staining solution was removed, resorption lacunae formed in the surface of each piece of dentinum as a result of binging by […] were counted under a microscope. […]

[7] = system: primary osteoblast-like interstitial cells and bone marrow cells of ddY mice; assay: Osteoclast formation in co-culture of mouse osteoblast-like interstitial cells and bone marrow cells; assay type: cell-based
Text: (2) The calvaria of ddY mice newborn were enzymatically treated (with a mixed solution of collagenase and disperse) to obtain primary osteoblast-like interstitial cells. On the other hand, bone marrow cells were isolated from the femurs and shinbones of the same strain mice (males of 6 to 9 weeks of age). The primary osteoblast-like interstitial cells and bone marrow cells were co-cultured in the presence of ACNQ to investigate differentiation induction effect of ACNQ on osteoclasts.
Using αMEM added with 10% FBS, a culture which contained the primary osteoblast-like interstitial cells and the bone marrow cells at a cell count ratio of about 1:20 was co-cultured in the presence of 10^−8 M to 10^−10 M 1α,25(OH)2D3 for 6 to 8 days. During the culture period, ACNQ solutions of various concentrations and as a control for comparison, vitamin K2 which is known to inhibit the formation of osteoclasts, were added, respectively, upon culture medium replacement (replaced by a half of the volume of the culture medium; replaced on every third days).
Cells, which were positive to TRAP staining and internally contained 3 or more nuclei per cell, were collected as differentiated osteoclasts. […]

[8] = system: osteoclasts from ddY mouse co-culture; assay: Cytotoxicity against osteoclasts on a piece of dentinum; assay type: cell-based; conditions: differentiated and matured mouse osteoclasts (FIG. 11)
Experimental: A still further investigation was also conducted on TRAP-positive cells formed by a co-culture system of primary osteoblast-like interstitial cells derived from the calvaria of a mouse newborn and mouse bone marrow cells. […] Effects of ACNQ on the activity of a bone re sorbing system were then investigated. Measured were the formation of resorption lacunae and cytotoxicity on a piece of dentinum in an osteoclast forming system by co-culture of primary osteoblast-like interstitial cells derived from the calvaria of the above mouse newborn and mouse bone marrow cells.
as §2, with “hours. After the culture, the individual cultures were transferred to 24 wells or 48 wells in which a culture medium was placed at 0.5 to 1.5 mL/well. At the same time, ACNQ solutions of various concentrations were added to the wells, respectively, followed by culture at 37° C. for 24 hours.” for “hours.”

[9] = system: osteoclast formation; conditions: side chains of vitamin K1 or K2; Hara, K. et al.: Bone, 16, 179-184, 1995; cited from earlier work

With C=C1/C(=C\C=C2/CCC[C@]3(C)[C@@H]([C@H](C)CCCC(C)(C)O)CC[C@@H]23)C[C@@H](O)C[C@@H]1O [1α,25(OH)2D3, reference compound] the “mineralization (Ca and P accumulation)” value ([1]; 10^−8 M to 10^−9 M (FIGS. 6 and 7)) was “promote mineralization concentration-dependently”.
With NC1=C(C(=O)O)C(=O)c2ccccc2C1=O [ACNQ, 2-amino-3-carboxy-1,4-naphthoquinone] the “ACNQ concentration at which ALP activity reached the peak” value ([2]; 3 days culture (FIG. 4)) was ~1 µg/mL, the “ALP activity of the cells” value ([2]; 3 days culture, up to an ACNQ concentration of 1 μg/mL (FIG. 4)) was “increased concentration-dependently” and the “mineralization (Ca and P accumulation)” value ([1]; 10^−5 M to 10^−7 M (FIGS. 6 and 7)) was “promote mineralization concentration-dependently”. For the same compound, the “cytotoxicity (MTT assay, viable cell count)” value [3] was “cytotoxicity was not observed at all”, the “formation of osteoclasts (TRAP-positive polykaryocytes)” value ([4]; human monocytes with 10^−8 M 1α,25(OH)2D3, ACNQ 10^−8 M to 10^−5 M (FIG. 9)) was “inhibited the formation of osteoclasts concentration-dependently” and the “inhibitory effect on osteoclast formation compared with vitamin K1” value ([4]; human monocytes, same concentration as vitamin K1 (FIG. 9)) was “significantly stronger than that available from vitamin K1”. The “cytotoxicity (free LDH in culture supernatant)” value [5] was “not determined to show cytotoxicity”, the “bone resorbing activity of osteoclasts (resorption lacunus counts)” value [6] was “did not lower the bone resorbing activity of osteoclasts” and the “differentiation and maturation of monocytes into osteoclasts (TRAP-positive cells with 3 or more nuclei)” value ([7]; mouse co-culture with 1α,25(OH)2D3, 6 to 8 days, ACNQ 0.15 to 15 μg/mL (FIG. 10)) was “inhibited differentiation and maturation”. For the same compound, the formation of osteoclasts ([7]; mouse co-culture, ACNQ at 1.5 μg/mL and higher (FIG. 10)) was “considerably inhibited the formation of osteoclasts” and the cytotoxicity against osteoclasts [8] was “does not exhibit cytotoxicity against osteoclasts”.
For C/C(=C\CO)CCC[C@H](C)CCC[C@H](C)CCCC(C)C [phytol], the osteoclast-formation inhibitory effect [9] is given as “weak in the inhibitory effect”.

Reference: patent US7709537B1, “Food materials useful in preventing and ameliorating metabolic bone diseases and preventives/remedies for metabolic bone diseases comprising these materials” (Meiji Dairiese Corporation, priority 1999, dated 2010)
